Test [1] concerns the target Inhibitor of nuclear factor kappa-B kinase subunit beta (Homo sapiens) (UniProt O14920). The conditions noted are these: Compound concentration 1000.0 nM.
For test [2], the target named is Alpha-1D adrenergic receptor (Homo sapiens) (UniProt P25100). To be noted: Compound concentration 10.0 uM.
Test [3] has as its target Alpha-1D adrenergic receptor (Homo sapiens, UniProt P25100). Nature of the test: GPCRScan assay: inhibition of Alpha1D. Details: radioligand conc. used [nm] 0.3 – 1.0, parental cells stable.
For test [4], the target named is cAMP-dependent protein kinase catalytic subunit beta (Homo sapiens) (UniProt P22694). The conditions noted are these: Compound concentration 1000.0 nM.
Test [5] concerns the target T1, Sodium-dependent dopamine transporter (Homo sapiens, UniProt Q01959). The experiment in a line: Functional Assay: Platelet-rich plasma SLC6A3/cAMP. The test is classed as cell-free.
Test [6] has as its target Alpha-1B adrenergic receptor (Homo sapiens) (UniProt P35368). The conditions noted are these: Compound concentration 10.0 uM.
For test [7], the system named is Hepatocyte growth factor receptor (Homo sapiens), P08581 [M1250T]. To be noted: Compound concentration 1000.0 nM.
Test [8] has as its target Histamine H2 receptor (Homo sapiens) (UniProt P25021). To be noted: Compound concentration 10.0 uM.
The target of test [9] is Histamine H3 receptor (Homo sapiens) (UniProt Q9Y5N1). The conditions noted are these: Compound concentration 10.0 uM.
Histamine H3 receptor (Homo sapiens), sequence (Q9Y5N1 whole entry): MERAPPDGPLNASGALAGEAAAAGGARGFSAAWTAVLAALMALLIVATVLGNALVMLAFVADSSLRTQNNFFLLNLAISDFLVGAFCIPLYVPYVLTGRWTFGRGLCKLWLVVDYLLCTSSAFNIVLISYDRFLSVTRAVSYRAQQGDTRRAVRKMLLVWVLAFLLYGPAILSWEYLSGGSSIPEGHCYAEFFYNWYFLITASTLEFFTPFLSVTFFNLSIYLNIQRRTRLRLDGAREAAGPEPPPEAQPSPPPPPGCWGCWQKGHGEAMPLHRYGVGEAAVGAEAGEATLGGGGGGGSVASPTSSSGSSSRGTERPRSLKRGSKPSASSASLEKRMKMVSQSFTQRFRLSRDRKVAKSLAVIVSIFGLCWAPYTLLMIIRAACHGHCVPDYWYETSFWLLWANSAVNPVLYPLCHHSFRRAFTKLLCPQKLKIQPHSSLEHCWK
The target in test [10] is Hepatocyte growth factor receptor (Homo sapiens) (UniProt P08581). The conditions noted are these: Compound concentration 1000.0 nM.
Test [11] has as its target Inhibitor of nuclear factor kappa-B kinase subunit epsilon (Homo sapiens) (UniProt Q14164). To be noted: Compound concentration 1000.0 nM.
Test [12] concerns the target T2, D(2) dopamine receptor (Homo sapiens, UniProt P14416). The experiment in a line: GPCRScan assay: inhibition of D2. Also on record: radioligand conc. used [nm] 0.4 – 1.0, parental cells stable fibroblast.
Test [13] addresses Alpha-2A adrenergic receptor (Homo sapiens) (UniProt P08913). To be noted: Compound concentration 10.0 uM.
For test [14], the target named is T1, Sodium-dependent dopamine transporter. Nature of the test: […] binding assay (SLC6A3).
Test [15] concerns the target MAP kinase-activated protein kinase 2 (Homo sapiens) (UniProt P49137). To be noted: Compound concentration 1000.0 nM.
The target in test [16] is Alpha-1A adrenergic receptor (Homo sapiens) (UniProt P35348). To be noted: Compound concentration 10.0 uM.
Alpha-1A adrenergic receptor (Homo sapiens), sequence (P35348 whole entry): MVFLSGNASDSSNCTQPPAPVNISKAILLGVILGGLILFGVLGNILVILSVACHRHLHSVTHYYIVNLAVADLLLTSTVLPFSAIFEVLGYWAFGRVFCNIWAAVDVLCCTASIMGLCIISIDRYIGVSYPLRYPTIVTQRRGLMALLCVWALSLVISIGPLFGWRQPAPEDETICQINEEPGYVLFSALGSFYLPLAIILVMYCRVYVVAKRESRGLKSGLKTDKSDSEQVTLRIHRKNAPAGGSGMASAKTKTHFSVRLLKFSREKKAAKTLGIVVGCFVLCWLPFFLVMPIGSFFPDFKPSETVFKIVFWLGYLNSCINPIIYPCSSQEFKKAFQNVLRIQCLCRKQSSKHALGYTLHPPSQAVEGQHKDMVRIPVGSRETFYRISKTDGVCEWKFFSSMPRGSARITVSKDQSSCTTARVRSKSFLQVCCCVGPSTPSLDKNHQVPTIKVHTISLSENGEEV
The target in test [17] is 5-hydroxytryptamine receptor 6 (Homo sapiens) (UniProt P50406). The conditions noted are these: Compound concentration 10.0 uM.
5-hydroxytryptamine receptor 6 (Homo sapiens), sequence (P50406 whole entry): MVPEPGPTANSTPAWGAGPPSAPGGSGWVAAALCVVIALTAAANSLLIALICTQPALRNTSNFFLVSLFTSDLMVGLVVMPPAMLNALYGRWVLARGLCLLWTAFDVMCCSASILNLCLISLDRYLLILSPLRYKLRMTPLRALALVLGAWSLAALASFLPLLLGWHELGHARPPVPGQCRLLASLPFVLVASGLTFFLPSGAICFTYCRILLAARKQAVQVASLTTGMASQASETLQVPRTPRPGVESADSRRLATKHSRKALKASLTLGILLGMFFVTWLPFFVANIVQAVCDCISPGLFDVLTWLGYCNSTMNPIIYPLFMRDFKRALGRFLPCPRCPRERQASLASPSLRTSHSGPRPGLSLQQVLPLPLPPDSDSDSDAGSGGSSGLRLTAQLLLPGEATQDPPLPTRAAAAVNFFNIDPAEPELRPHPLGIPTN
The subject of test [18] is Tyrosine-protein kinase ABL1 (Homo sapiens), P00519 [F317I]. The conditions noted are these: Compound concentration 1000.0 nM.
The target in test [19] is T2, D(2) dopamine receptor. The conditions noted are these: Compound concentration 10.0 uM.
Test [20] has as its system Serine/threonine-protein kinase B-raf (Homo sapiens), P15056 [V600E]. The conditions noted are these: Compound concentration 1000.0 nM.
The subject of test [21] is Tyrosine-protein kinase ABL1 (Homo sapiens), P00519 [F317L]. To be noted: Compound concentration 1000.0 nM.
Test [22] has as its system Tyrosine-protein kinase ABL1 (Homo sapiens), P00519 [Q252H]. The conditions noted are these: Compound concentration 1000.0 nM.
Test [23] addresses Tyrosine-protein kinase ABL1 (Homo sapiens) (UniProt P00519). The conditions noted are these: Compound concentration 1000.0 nM.
The test system of test [24] is Tyrosine-protein kinase ABL1 (Homo sapiens), P00519 [E255K]. The conditions noted are these: Compound concentration 1000.0 nM.

T1 sequence (Q01959 whole entry): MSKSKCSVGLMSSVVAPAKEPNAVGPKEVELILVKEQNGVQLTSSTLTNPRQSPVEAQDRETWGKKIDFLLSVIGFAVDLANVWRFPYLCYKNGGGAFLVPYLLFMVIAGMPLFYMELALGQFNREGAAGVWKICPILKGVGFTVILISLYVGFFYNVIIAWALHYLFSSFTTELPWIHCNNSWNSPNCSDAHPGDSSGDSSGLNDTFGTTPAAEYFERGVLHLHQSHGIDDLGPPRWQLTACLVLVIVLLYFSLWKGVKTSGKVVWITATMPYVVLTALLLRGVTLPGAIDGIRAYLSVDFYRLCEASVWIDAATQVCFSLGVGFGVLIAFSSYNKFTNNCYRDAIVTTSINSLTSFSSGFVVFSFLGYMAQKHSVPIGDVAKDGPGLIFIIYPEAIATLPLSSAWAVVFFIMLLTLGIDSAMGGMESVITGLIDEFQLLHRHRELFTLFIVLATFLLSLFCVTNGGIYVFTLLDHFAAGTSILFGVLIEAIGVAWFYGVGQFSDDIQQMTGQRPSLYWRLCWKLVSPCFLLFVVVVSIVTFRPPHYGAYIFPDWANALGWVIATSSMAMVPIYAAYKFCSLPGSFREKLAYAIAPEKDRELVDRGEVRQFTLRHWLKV
T2 sequence (P14416 whole entry): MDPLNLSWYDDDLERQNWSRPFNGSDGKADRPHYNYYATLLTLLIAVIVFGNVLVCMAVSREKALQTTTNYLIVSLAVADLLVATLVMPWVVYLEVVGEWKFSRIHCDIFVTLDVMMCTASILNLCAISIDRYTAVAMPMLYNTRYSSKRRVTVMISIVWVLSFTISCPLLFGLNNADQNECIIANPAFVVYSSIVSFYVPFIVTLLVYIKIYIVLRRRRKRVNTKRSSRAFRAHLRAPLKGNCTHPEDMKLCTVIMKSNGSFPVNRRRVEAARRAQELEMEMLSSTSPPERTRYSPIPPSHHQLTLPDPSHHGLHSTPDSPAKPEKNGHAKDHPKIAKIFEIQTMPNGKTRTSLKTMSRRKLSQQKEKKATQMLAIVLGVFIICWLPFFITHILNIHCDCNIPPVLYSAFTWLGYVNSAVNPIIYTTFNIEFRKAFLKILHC
Histamine H2 receptor (Homo sapiens), sequence (P25021 whole entry): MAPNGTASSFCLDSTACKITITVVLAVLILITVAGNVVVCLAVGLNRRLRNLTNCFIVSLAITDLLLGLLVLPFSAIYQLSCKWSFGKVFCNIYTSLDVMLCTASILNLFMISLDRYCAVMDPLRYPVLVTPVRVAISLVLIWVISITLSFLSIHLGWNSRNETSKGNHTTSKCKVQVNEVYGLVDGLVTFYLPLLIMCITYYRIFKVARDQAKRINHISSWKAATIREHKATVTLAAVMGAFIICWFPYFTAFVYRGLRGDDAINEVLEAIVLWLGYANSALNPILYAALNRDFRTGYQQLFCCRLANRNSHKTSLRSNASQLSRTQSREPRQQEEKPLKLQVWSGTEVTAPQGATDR
Inhibitor of nuclear factor kappa-B kinase subunit beta (Homo sapiens), sequence (O14920 whole entry): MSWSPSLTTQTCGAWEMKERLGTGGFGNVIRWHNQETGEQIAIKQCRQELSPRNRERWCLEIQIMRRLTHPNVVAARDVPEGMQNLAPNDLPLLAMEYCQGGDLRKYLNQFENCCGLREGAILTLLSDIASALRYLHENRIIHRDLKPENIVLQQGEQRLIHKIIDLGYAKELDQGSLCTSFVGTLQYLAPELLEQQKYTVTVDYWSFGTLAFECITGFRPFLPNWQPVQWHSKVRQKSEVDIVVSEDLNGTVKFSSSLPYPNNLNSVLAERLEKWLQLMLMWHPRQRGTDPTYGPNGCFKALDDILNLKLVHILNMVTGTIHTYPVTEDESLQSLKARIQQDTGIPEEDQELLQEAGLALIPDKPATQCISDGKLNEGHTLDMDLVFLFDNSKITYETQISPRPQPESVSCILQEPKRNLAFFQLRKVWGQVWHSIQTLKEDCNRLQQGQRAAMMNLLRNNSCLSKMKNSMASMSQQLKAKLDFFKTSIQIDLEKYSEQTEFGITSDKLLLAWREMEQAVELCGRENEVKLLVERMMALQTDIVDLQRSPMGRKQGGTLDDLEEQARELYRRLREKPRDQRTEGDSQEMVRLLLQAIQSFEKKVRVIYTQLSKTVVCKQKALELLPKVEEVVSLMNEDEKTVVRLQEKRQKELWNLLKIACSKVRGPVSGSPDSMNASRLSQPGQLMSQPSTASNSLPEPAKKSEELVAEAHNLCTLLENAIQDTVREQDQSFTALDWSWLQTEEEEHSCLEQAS
Serine/threonine-protein kinase B-raf (Homo sapiens), P15056 [V600E], sequence (P15056 whole entry V600E): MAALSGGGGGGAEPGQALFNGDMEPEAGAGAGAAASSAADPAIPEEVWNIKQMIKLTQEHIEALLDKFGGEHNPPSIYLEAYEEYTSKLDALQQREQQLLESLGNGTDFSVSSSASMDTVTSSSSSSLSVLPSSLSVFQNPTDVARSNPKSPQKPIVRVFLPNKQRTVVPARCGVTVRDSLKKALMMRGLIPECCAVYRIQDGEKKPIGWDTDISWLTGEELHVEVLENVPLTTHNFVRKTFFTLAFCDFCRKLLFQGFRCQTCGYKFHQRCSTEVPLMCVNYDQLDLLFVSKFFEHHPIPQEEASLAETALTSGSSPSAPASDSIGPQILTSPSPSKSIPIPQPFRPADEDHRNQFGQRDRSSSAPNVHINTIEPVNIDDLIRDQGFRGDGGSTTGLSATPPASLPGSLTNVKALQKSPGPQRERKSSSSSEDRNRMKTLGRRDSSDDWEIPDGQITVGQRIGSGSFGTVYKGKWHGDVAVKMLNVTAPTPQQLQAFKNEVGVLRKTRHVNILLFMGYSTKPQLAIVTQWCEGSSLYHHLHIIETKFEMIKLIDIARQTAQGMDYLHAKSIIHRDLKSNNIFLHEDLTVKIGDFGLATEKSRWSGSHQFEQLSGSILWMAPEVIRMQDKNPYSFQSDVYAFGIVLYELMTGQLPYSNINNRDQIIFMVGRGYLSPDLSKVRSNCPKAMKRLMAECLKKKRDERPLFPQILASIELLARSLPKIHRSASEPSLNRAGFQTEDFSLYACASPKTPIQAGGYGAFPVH
Alpha-1D adrenergic receptor (Homo sapiens), sequence (P25100 whole entry): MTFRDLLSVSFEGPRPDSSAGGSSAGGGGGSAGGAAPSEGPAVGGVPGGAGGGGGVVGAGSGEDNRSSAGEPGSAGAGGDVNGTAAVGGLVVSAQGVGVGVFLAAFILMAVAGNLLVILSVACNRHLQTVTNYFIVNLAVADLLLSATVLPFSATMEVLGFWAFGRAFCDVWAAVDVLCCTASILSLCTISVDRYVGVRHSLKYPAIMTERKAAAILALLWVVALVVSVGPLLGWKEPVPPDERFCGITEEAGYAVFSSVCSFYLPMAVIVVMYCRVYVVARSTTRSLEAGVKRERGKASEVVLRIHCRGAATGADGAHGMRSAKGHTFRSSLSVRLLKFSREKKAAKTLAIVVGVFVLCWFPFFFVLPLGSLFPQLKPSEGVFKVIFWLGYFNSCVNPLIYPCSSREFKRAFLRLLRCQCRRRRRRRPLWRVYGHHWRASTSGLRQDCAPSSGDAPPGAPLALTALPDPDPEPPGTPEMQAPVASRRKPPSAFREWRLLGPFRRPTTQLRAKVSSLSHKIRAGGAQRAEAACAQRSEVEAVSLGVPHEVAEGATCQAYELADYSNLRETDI
Alpha-1D adrenergic receptor, sequence (P25100 whole entry): as above

The inhibition is the drop in the measured response relative to a control, in per cent. A word on the Ki: it is the dissociation constant of the complex between target and ligand, obtained from inhibition or displacement. As a reminder, the IC50 is the midpoint of a concentration-inhibition curve. Read a low IC50 as greater potency in that assay. Turning to `CN([C@@H]1CCc2c(CC(=O)O)c3ccccc3n2C1)S(=O)(=O)c1ccc(F)cc1` [MK-7246], the residual activity in test [1] was 98%; in test [4] it was 100%; in test [7], 100%; in [10], 100%; in test [11], 84%; in [15] it was 100%. Moreover, the inhibition in test [2] was 50%; in test [6] it was -8.18%; in test [8], -1.62%; in test [9], 4.03%; in test [13], -3.89%; in test [16], -4.89%. In addition, the results for the Ki (in [3]; on D(2) dopamine receptor [12]; in test [14]) were 10 µM, 3.75 µM and 373 nM (not active), respectively. In [5], the IC50 is on record as 8.69 µM (not active).

For the compound `CN([C@@H]1CCc2c(CC(=O)O)c3cc(S(C)(=O)=O)ccc3n2C1)S(=O)(=O)c1ccc(F)cc1`, the inhibition was -5.39% in test [17] and -3.84% at D(2) dopamine receptor [19]. The residual activity in [18] is 76%; in test [20], 90%; in [21], 92%; in test [22], 79%; in test [23] it was 74%; in test [24], 100%.

The values above are taken from ChEMBL document CHEMBL4507290 (2021).
